Measurements published in patent US4039574A, “13-Hydroxy-15-deoxy-prostaglandins” (American Cyanamid Company, priority 1975, dated 1977).

System: basal gastric acid secretion
Assay: Inhibition of Gastric Acid Secretion in the Acute Gastric Fistula Rat (basal gastric acid secretion)
Assay type: in vivo, Female Sprague-Dawley rats
Settings: 10 mg./kg., vs concurrent vehicle control

| SMILES | % inhibition of total acid output after 60 minutes (intraduodenal route) | % inhibition of total acid output after 120 minutes (intraduodenal route) | % inhibition of total acid output after 60 minutes (oral route of administration) | % inhibition of total acid output after 120 minutes (oral route of administration) |
| --- | --- | --- | --- | --- |
| CCCCCCCC(O)[C@@H]1CCC(=O)[C@H]1CCCCCCC(=O)O (relative stereo) [trans-2-(6-carboxyhexyl)-3-(1-hydroxyoctyl)cyclopentanone] | 29% | 78% |  |  |
| CCCCCCCC(O)C1C(O)CC(=O)C1CC=CCCCC(=O)O (stereo not drawn) [2α-(6-carboxyhex-2-cis-enyl)-3β-(1-hydroxyoctyl)-4-hydroxycy] [2α-(6-carboxyhex-2-cis-enyl)-3β-(1-hydroxyoctyl)-4-hydroxycyclopentanone] | 81% | 20% |  |  |
| CCCCCCCC(O)C1C(O)CC(=O)C1CC=CCCCC(=O)O (stereo not drawn) [2β-(6-carboxyhex-2-cis-enyl)-3β-(1-hydroxyoctyl)-4-hydroxycy] [2β-(6-carboxyhex-2-cis-enyl)-3β-(1-hydroxyoctyl)-4-hydroxycyclopentanone] | 100% | 94% | 1% | 56% |
